From the NIST ThermoML archive (doi:10.1016/j.fluid.2016.05.030)

Tests used:
[1] = 101.33 kPa, Liquid; for viscosity: Concentric cylinders viscometry; for mass density: Vibrating tube method
[2] = molar heat capacity at constant pressure; settings: 298.15 K; 101.33 kPa; Liquid; Drop calorimetry

CCCCCc1cccc[n+]1CC.O=S(=O)([N-]S(=O)(=O)C(F)(F)F)C(F)(F)F
[1]
Settings | mass density [kg/m3] | viscosity [mPa·s]
293.15 K | 1375.6 | 144.37
298.15 K | 1371.1 | 108.78
303.15 K | 1366.6 | 83.99
308.15 K | 1362.2 | 66.14
313.15 K | 1357.8 | 53
318.15 K | 1353.4 | 43.06
323.15 K | 1349 | 35.52
328.15 K | 1344.6 | 29.65
333.15 K | 1340.2 | 25.11
338.15 K | 1335.8 | 21.4
343.15 K | 1331.5 | 18.44
348.15 K | 1327.1 | 16.02
353.15 K | 1322.8 | 14.06
358.15 K | 1318.6 | 12.36
363.15 K | 1314.3 | 10.97

Settings | molar heat capacity at constant pressure [J/K/mol]
[2] | 652.7

CCCc1cccc[n+]1CC.O=S(=O)([N-]S(=O)(=O)C(F)(F)F)C(F)(F)F
[1]
Settings | mass density [kg/m3] | viscosity [mPa·s]
293.15 K | 1452 | 139.89
298.15 K | 1447.2 | 105.02
303.15 K | 1442.5 | 81.09
308.15 K | 1437.8 | 63.9
313.15 K | 1433.1 | 51.37
318.15 K | 1428.4 | 41.8
323.15 K | 1423.8 | 34.57
328.15 K | 1419.2 | 28.96
333.15 K | 1414.6 | 24.59
338.15 K | 1410 | 21
343.15 K | 1405.4 | 18.15
348.15 K | 1400.9 | 15.82
353.15 K | 1396.4 | 13.94
358.15 K | 1391.9 | 12.3
363.15 K | 1387.5 | 10.95

Settings | molar heat capacity at constant pressure [J/K/mol]
[2] | 593.9

CCc1cccc[n+]1CC.O=S(=O)([N-]S(=O)(=O)C(F)(F)F)C(F)(F)F [1,2-diethylpyridin-1-ium bis((trifluoromethyl)sulfonyl)imide]
[1]
Settings | mass density [kg/m3] | viscosity [mPa·s]
293.15 K | 1475.5 | 87.87
298.15 K | 1470.6 | 68.77
303.15 K | 1465.8 | 54.95
308.15 K | 1461.1 | 44.69
313.15 K | 1456.3 | 36.91
318.15 K | 1451.6 | 30.88
323.15 K | 1446.9 | 26.16
328.15 K | 1442.2 | 22.38
333.15 K | 1437.5 | 19.4
338.15 K | 1432.9 | 16.9
343.15 K | 1428.3 | 14.86
348.15 K | 1423.7 | 13.16
353.15 K | 1419.1 | 11.75
358.15 K | 1414.6 | 10.52
363.15 K | 1410 | 9.483

Settings | molar heat capacity at constant pressure [J/K/mol]
[2] | 566.1

CCCCCCCc1cccc[n+]1CC.O=S(=O)([N-]S(=O)(=O)C(F)(F)F)C(F)(F)F
[1]
Settings | mass density [kg/m3] | viscosity [mPa·s]
293.15 K | 1325.1 | 180.53
298.15 K | 1320.8 | 134.1
303.15 K | 1316.5 | 102.47
308.15 K | 1312.2 | 79.9
313.15 K | 1307.9 | 63.6
318.15 K | 1303.6 | 51.17
323.15 K | 1299.4 | 41.88
328.15 K | 1295.2 | 34.73
333.15 K | 1290.9 | 29.21
338.15 K | 1286.7 | 24.71
343.15 K | 1282.5 | 21.16
348.15 K | 1278.3 | 18.28
353.15 K | 1274.2 | 15.97
358.15 K | 1270.1 | 13.97
363.15 K | 1266 | 12.34

Settings | molar heat capacity at constant pressure [J/K/mol]
[2] | 717.5

CCCCc1cccc[n+]1CC.O=S(=O)([N-]S(=O)(=O)C(F)(F)F)C(F)(F)F
[1]
Settings | mass density [kg/m3] | viscosity [mPa·s]
293.15 K | 1413.7 | 146.84
298.15 K | 1409.1 | 109.82
303.15 K | 1404.5 | 84.49
308.15 K | 1400 | 66.34
313.15 K | 1395.4 | 53.17
318.15 K | 1390.9 | 43.11
323.15 K | 1386.4 | 35.55
328.15 K | 1381.9 | 29.7
333.15 K | 1377.4 | 25.14
338.15 K | 1373 | 21.42
343.15 K | 1368.5 | 18.45
348.15 K | 1364.1 | 16.04
353.15 K | 1359.7 | 14.09
358.15 K | 1355.4 | 12.39
363.15 K | 1351 | 11

Settings | molar heat capacity at constant pressure [J/K/mol]
[2] | 623.6

CCCCCCCCCc1cccc[n+]1CC.O=S(=O)([N-]S(=O)(=O)C(F)(F)F)C(F)(F)F
Settings | molar heat capacity at constant pressure [J/K/mol]
[2] | 778.5

CCCCCCCCCCc1cccc[n+]1CC.O=S(=O)([N-]S(=O)(=O)C(F)(F)F)C(F)(F)F
Settings | molar heat capacity at constant pressure [J/K/mol]
[2] | 811.2

CCCCCCCCc1cccc[n+]1CC.O=S(=O)([N-]S(=O)(=O)C(F)(F)F)C(F)(F)F
[1]
Settings | mass density [kg/m3] | viscosity [mPa·s]
293.15 K | 1301.7 | 216.19
298.15 K | 1297.4 | 159.29
303.15 K | 1293.2 | 120.76
308.15 K | 1289 | 93.45
313.15 K | 1284.8 | 73.88
318.15 K | 1280.6 | 59
323.15 K | 1276.4 | 47.97
328.15 K | 1272.3 | 39.54
333.15 K | 1268.1 | 33.06
338.15 K | 1264 | 27.82
343.15 K | 1259.9 | 23.71
348.15 K | 1255.8 | 20.39
353.15 K | 1251.7 | 17.72
358.15 K | 1247.6 | 15.44
363.15 K | 1243.6 | 13.58

Settings | molar heat capacity at constant pressure [J/K/mol]
[2] | 749.4

CCCCCCc1cccc[n+]1CC.O=S(=O)([N-]S(=O)(=O)C(F)(F)F)C(F)(F)F
[1]
Settings | mass density [kg/m3] | viscosity [mPa·s]
293.15 K | 1348.7 | 159.82
298.15 K | 1344.3 | 119.41
303.15 K | 1339.9 | 91.77
308.15 K | 1335.5 | 71.93
313.15 K | 1331.2 | 57.52
318.15 K | 1326.8 | 46.51
323.15 K | 1322.5 | 38.22
328.15 K | 1318.2 | 31.83
333.15 K | 1313.9 | 26.87
338.15 K | 1309.7 | 22.8
343.15 K | 1305.6 | 19.59
348.15 K | 1301.4 | 16.98
353.15 K | 1297.1 | 14.86
358.15 K | 1292.9 | 13.04
363.15 K | 1288.8 | 11.54

Settings | molar heat capacity at constant pressure [J/K/mol]
[2] | 685.5
